For three molecules, IC50, CC50 and EC50 results are on record in ChEMBL document CHEMBL5550108, “Exploiting high-energy hydration sites for the discovery of potent peptide aldehyde inhibitors of the SARS-CoV-2 main protease with cellular antiviral activity” (Bioorg Med Chem, 2024).

Series [1] deals with T1, Replicase polyprotein 1ab (Severe acute respiratory syndrome coronavirus 2, UniProt P0DTD1). The experiment in a line: Inhibition of SARS-CoV-2 main protease.
A short description of series [2]: Cytotoxicity against human MRC5 cells assessed as reduction in cell viability measured after 7 days by Celltiter -Glo assay. The format is toxicity, cell-based. The following applies: time 7 day.
Series [3] in a line: Inhibition of HCoV-HKU1 main protease using Dbcyl-YGSTLQAGLRKM-(Edans) as substrate preincubated for 30 mins followed by substrate addition and measured after 60 mins by fluorescence based Spectramax M2e microplate reader based analysis. Also on record: species or system Human coronavirus HKU1.
For series [4], the target named is T1, Replicase polyprotein 1ab. Briefly: Inhibition of C-terminal 6-his tagged SARS-CoV-2 main protease expressed in Escherichia coli BL-21-Gold(DE3) cells using DabcylKTSAVLQSGFRKM-(Edan) as substrate preincubated for 30 mins followed by substrate addition and measured after 60 mins by fluorescence based Spectramax M2e microplate reader based analysis.
Another series has as its system Human coronavirus 229E. Briefly: microbe, parasite or virus in culture. Particulars: MRC5.
A short description of series [5]: Cytotoxicity against human HeLa cells expressing ACE2 assessed as cell viability measured after 24 hrs by Cell-titer glo assay. It counts as toxicity, cell-based.
Series [6] can be described thus: Inhibition of MERS main protease using Dbcyl-YGSTLQAGLRKM-(Edans) as substrate preincubated for 30 mins followed by substrate addition and measured after 60 mins by fluorescence based Spectramax M2e microplate reader based analysis. Also on record: species or system Middle East respiratory syndrome-related coronavirus.
A further series deals with Replicase polyprotein 1a (Severe acute respiratory syndrome-related coronavirus, UniProt P0C6U8). Briefly: Inhibition of SARS-CoV-1 main protease using DabcylKTSAVLQSGFRKM-(Edan) as substrate preincubated for 30 mins followed by substrate addition and measured after 60 mins by fluorescence based Spectramax M2e microplate reader based analysis.
Series [7] in a line: Inhibition of HCoV-OC43 main protease using Dbcyl-YGSTLQAGLRKM-(Edans) as substrate preincubated for 30 mins followed by substrate addition and measured after 60 mins by fluorescence based Spectramax M2e microplate reader based analysis. Set-up: species or system Human coronavirus OC43.
The nature of series [8]: Inhibition of HCoV-229E main protease using Dbcyl-YGSTLQAGLRKM-(Edans) as substrate preincubated for 30 mins followed by substrate addition and measured after 60 mins by fluorescence based Spectramax M2e microplate reader based analysis. Set-up: species or system Human coronavirus 229E.
The nature of series [9]: Cytotoxicity against human Huh-7 cells assessed as reduction in cell viability measured after 7 days by Celltiter -Glo assay. It counts as toxicity, cell-based. Particulars: time 7 day.
The target of a further series is Cathepsin B (Homo sapiens, UniProt P07858). Briefly: Inhibition of human Cathepsin B.
Another series deals with Human coronavirus OC43. Briefly: Antiviral activity against HCoV-OC43 infected in human Huh-7 cells assessed as reduction in cytopathic effect pretreated with cells followed by viral infection and measured after 7 days. It counts as functional, organism-based. The following applies: Betacoronavirus 1, Huh-7.
Series [10] is described as follows: Inhibition of HCoV-NL63 main protease using Dabcyl-YNSTLQSGLKKM-(Edans) as substrate preincubated for 30 mins followed by substrate addition and measured after 60 mins by fluorescence based Spectramax M2e microplate reader based analysis. Also on record: species or system Human coronavirus NL63.

On to `O=C[C@H](C[C@@H]1CNCC1=O)NC(=O)[C@H](Cc1cccc(F)c1)NC(=O)c1cc2ccccc2[nH]1`, for which the IC50 (usually the concentration at which inhibition is half-maximal) in series [1] is 25 nM.

Turning to `CC(C)c1ccc(F)c2[nH]c(C(=O)N3C[C@H]4[C@@H]([C@H]3C(=O)N[C@H](C=O)C[C@@H]3CCNC3=O)C4(C)C)cc12`, the CC50 at 168 h in [2] and in [9] was more than 50000 nM in each case. Also, the concentration for half-maximal inhibition (IC50) in series [3] turned out to be 16 nM; in series [4], 22 nM; in series [6], 210 nM; at Replicase polyprotein 1a, 30 nM; in [7] it was 35 nM; in series [8] it was 26 nM. Besides, the half-maximal inhibitory concentration (IC50) at Cathepsin B was more than 50000 nM; in series [10] it was 40 nM. The results for the EC50 with Human coronavirus 229E and in the series on Human coronavirus OC43 were 60 nM and 290 nM, respectively. In [5], the half-maximal cytotoxic concentration (CC50) – broadly, the concentration giving 50% cytotoxicity – at 24 h is more than 40000 nM.

Turning to `CC1(C)[C@@H]2[C@@H](C(=O)N[C@H](C=O)C[C@@H]3CCNC3=O)N(C(=O)C3(c4ccccc4)CCCC3)C[C@@H]21`, the CC50 at 168 h in [2] and in series [9] was more than 50000 nM in each case. Further, the half-maximal inhibitory concentration (IC50) was 21 nM in series [3]; 15 nM in series [4]; 290 nM in [6]; 48 nM against Replicase polyprotein 1a; 55 nM in [7]; 46 nM in series [8]. The IC50 on Cathepsin B worked out at 29000 nM; in [10] it was 180 nM. Further, the concentration giving a half-maximal response (EC50) (in general, the concentration that produces a half-maximal response) with Human coronavirus 229E stood at 110 nM; in the series on Human coronavirus OC43, 280 nM. In addition, the CC50 at 24 h in series [5] was more than 40000 nM.
